{"source": "patent US7851640B2", "about": "“Catalytic enantioselective synthesis of flavanones and chromanones” (Northwestern University, priority 2008, dated 2010)", "origin": "cited, not measured here", "system": "MMP-2", "conditions": "PCa cells treated with genistein"}
{"compound": "O=c1c(-c2ccc(O)cc2)coc2cc(O)cc(O)c12", "note": "[genistein]", "values": [{"measurement": "levels of MMP-2 gene transcript and protein", "result": "decreased levels of both MMP-2 gene transcript and protein"}]}
